Earlier results, collected in patent publication US20150313913A1, “POSITIVE ALLOSTERIC MODULATORS OF THE GABA-A RECEPTOR IN THE TREATMENT OF AUTISM” (UNIVERSITY OF WASHINGTON THROUGH ITS CENTER FOR …, priority 2013, published 2015).

Tested on: GABA-A receptor
Conditions: Table 1, exemplary benzodiazepines; cited from earlier work
For `CN(C)Cc1nnc2n1-c1ccc(Cl)cc1C(c1ccccc1)=NC2` [Adinazolam], the “Effect at GABA-A receptor” value is listed as “Full agonist”.
In the case of `CCOC(=O)N1CCC(=O)N(c2ccccc2)c2cc(Cl)ccc21` [Arfendazam], the “Effect at GABA-A receptor” value is listed as “Partial agonist”.
For `Clc1ccccc1C1=NCc2nnc(C3CCCCC3)n2-c2sc(Br)cc21` [Ciclotizolam], the “Effect at GABA-A receptor” value is listed as “Partial Agonist Low efficacy”.
For `CN1C(=O)CN2CCc3ccccc3C2c2cc(Cl)ccc21` (stereo not shown) [Clazolam], the “Effect at GABA-A receptor” value is listed as “Agonist”.
For `Cc1ncc2n1-c1ccc(Cl)cc1C(c1ccccc1Cl)=NC2` [Climazolam], the “Effect at GABA-A receptor” value is given as “Agonist”.
For `[O-][N+]1=C(c2ccccc2)c2cc(Cl)ccc2N=C(NCC2CC2)C1` [Cyprazepam], the “Effect at GABA-A receptor” value is listed as “Agonist”.
For `O=C1C(O)N=C(c2ccccc2F)c2cc(Cl)ccc2N1CCO` (stereo not shown) [Doxefazepam], the “Effect at GABA-A receptor” value is given as “Agonist”.
For `CCS(=O)(=O)CCN1C(=O)CN=C(c2ccccc2F)c2cc(Cl)ccc21` [Elfazepam], the “Effect at GABA-A receptor” value is given as “Agonist”.
In the case of `CCOC(=O)C1N=C(c2ccccc2F)c2cc(Cl)ccc2N(C(=O)NC)C1=O` (stereo not shown) [Ethyl carfluzepate], the “Effect at GABA-A receptor” value is given as “Agonist”.
For `CCOC(=O)C1N=C(c2ccccc2Cl)c2cc(Cl)ccc2NC1=O` (stereo not shown) [Ethyl dirazepate], the “Effect at GABA-A receptor” value is listed as “Agonist”.
For `Fc1ccccc1C1=NCCN(CC(F)(F)F)c2ccc(Cl)cc21` [Fletazepam], the “Effect at GABA-A receptor” value is listed as “Agonist”.
For `CN1C(=O)CN=C(c2ccccc2F)c2cc(Cl)ccc21` [Fludiazepam], the “Effect at GABA-A receptor” value is given as “Agonist”.
For `O=C1CN2CCOC2(c2ccccc2F)c2cc(Cl)ccc2N1CCO` (stereo not shown) [Flutazolam], the “Effect at GABA-A receptor” value is listed as “Agonist”.
For `CN1C(=O)C(O)N=C(c2ccccc2F)c2cc(Cl)ccc21` (stereo not shown) [Flutemazepam], the “Effect at GABA-A receptor” value is given as “Agonist”.
In the case of `NNC(=O)CN1C(=O)CN=C(c2ccccc2)c2cc(Br)ccc21` [Gidazepam], the “Effect at GABA-A receptor” value is given as “Agonist (Prodrug)”.
For `COc1cc2c(cc1OC)C(c1cccc(Cl)c1)=NN=C(C)C2` [Girisopam], the “Effect at GABA-A receptor” value is listed as “Agonist”.
In the case of `O=C1CN2CCOC2(c2ccccc2F)c2cc(Br)ccc2N1` (stereo not shown) [Haloxazolam], the “Effect at GABA-A receptor” value is given as “Agonist”.
For `O=C1CN=C(c2ccccc2)c2cc(Cl)ccc2N1CCOCC1CC1` [Iclazepam], the “Effect at GABA-A receptor” value is given as “Agonist”.
For `NC(=O)c1ncn2c1CN=C(c1ccccc1Br)c1cc(F)ccc1-2` [Imidazenil], the “Effect at GABA-A receptor” value is listed as “Partial agonist”.
For `O=C1CCNc2ccc(Cl)cc2N1c1ccccc1` [Lofendazam], the “Effect at GABA-A receptor” value is listed as “Agonist”.
For `O=C1Nc2ccc(Cl)nc2C(c2ccccc2Cl)=NC1O` (stereo not shown) [Lopirazepam], the “Effect at GABA-A receptor” value is listed as “Agonist Short- acting”.
For `C[C@@H]1N=C(c2ccccc2Cl)c2cc([N+](=O)[O-])ccc2NC1=O` [Meclonazepam], the “Effect at GABA-A receptor” value is given as “Agonist”.
For `CN1C(=O)CN=C(C2=CCCCC2)c2cc([N+](=O)[O-])ccc21` [Menitrazepam], the “Effect at GABA-A receptor” value is given as “Agonist”.
In the case of `COCC1CN=C(c2ccccc2Cl)c2cc(Br)ccc2N1C` (stereo not shown) [Metaclazepam], the “Effect at GABA-A receptor” value is listed as “Agonist”.
For `CC1COC2(c3ccccc3Cl)c3cc(Cl)ccc3NC(=O)CN12` (stereo not shown) [Mexazolam], the “Effect at GABA-A receptor” value is listed as “Agonist”.
In the case of `COc1cc2c(cc1OC)C(c1ccc(N)cc1)=NN=C(C)C2` [Nerisopam], the “Effect at GABA-A receptor” value is given as “Agonist”.
In the case of `O=C(O)C1N=C(c2ccccc2)c2cc([N+](=O)[O-])ccc2NC1=O` (stereo not shown) [Nitrazepate], the “Effect at GABA-A receptor” value is given as “Agonist”.
For `CC1CN2CC(=O)Nc3ccc(Cl)cc3C2(c2ccccc2)O1` (stereo not shown) [Oxazolam], the “Effect at GABA-A receptor” value is given as “Agonist”.
In the case of `CC(C)(C)C(=O)OC1N=C(c2ccccc2)c2cc(Cl)ccc2NC1=O` (stereo not shown) [Pivoxazepam], the “Effect at GABA-A receptor” value is listed as “Agonist”.
In the case of `O=C1CN=C(c2ccccc2F)c2cc(Cl)ccc2N1CC(O)CO` (stereo not shown) [Proflazepam], the “Effect at GABA-A receptor” value is given as “Agonist”.
For `O=C1COC(N2CCN=C(c3ccccc3Cl)c3cc(Cl)ccc32)=N1` [Reclazepam], the “Effect at GABA-A receptor” value is given as “Agonist”.
For `COC(=O)CC[C@@H]1N=C(c2ccccn2)c2cc(Br)ccc2-n2c(C)cnc21` [Remimazolam], the “Effect at GABA-A receptor” value is given as “Agonist”.
For `CCn1nc(C)c2c1C(c1ccccc1)=NCC(=O)N2` [Ripazepam], the “Effect at GABA-A receptor” value is given as “Agonist”.
For `CCCN(CCC)Cc1nc(-c2ncn3c2CN(C)C(=O)c2cc(F)ccc2-3)no1` [Ro48-6791], the “Effect at GABA-A receptor” value is listed as “Agonist”.

Same assay, conditions: Table 2, exemplary SS-PAMs; cited from earlier work
In the case of `CCCc1c(Cn2ccnc2-c2ncccc2F)ncn2nc(C)nc12` [Adipiplon], the “Effect at GABA receptor” value is listed as “Partial agonist α3 selective”.
For `CCCN(CCC)C(=O)Cc1c(-c2ccc(Cl)cc2)nc2ccc(Cl)cn12` [Alpidem], the “Effect at GABA receptor” value is listed as “Agonist α3 subtype selective”.
In the case of `O=C1N=C(N2CCCCC2)CN1c1ccc(Cl)cc1` [ELB-139], the “Effect at GABA receptor” value is given as “Partial agonist Highest affinity for α3 subtype but highest efficacy at the α1 and α2 subunits”.
For `c1cc(-n2ccnc2)cc(-n2cnc3cc(-c4ccoc4)ccc32)c1` [NS-2664], the “Effect at GABA receptor” value is given as “Partial agonist α2,3 subtype selective”.
In the case of `CCO/N=C(\C)c1ccc2c(c1)ncn2-c1cccc(-c2cccnc2)c1` [NS-2710], the “Effect at GABA receptor” value is given as “Partial agonist α2,3 subtype selective”.
In the case of `CC(C)(O)c1ccc2c(c1)ncn2-c1cccc(-c2ccccc2C#N)c1` [NS-11394], the “Effect at GABA receptor” value is given as “Agonist α3,5 subtype selective”.
For `CC(C)CCC(=O)CC1c2ccccc2C(=O)N1c1ccc2ccc(Cl)nc2n1` (stereo not shown) [Pagoclone], the “Effect at GABA receptor” value is given as “Partial agonist α2,3 selective”.
In the case of `CC#CCOC(=O)c1c(C)nc2sc3c(c2c1N)CCC(O)C3` (stereo not shown) [SB-205,384], the “Effect at GABA receptor” value is listed as “Agonist α3,5,6 subtype selective”.

Same assay, conditions: Table 4, exemplary non-BDZ GABA-A enhancers; cited from earlier work
For `COCc1c(C(=O)OC(C)C)ncc2[nH]c3ccc(OCc4ccccc4)cc3c12` [Abecarnil], the “Effect at GABA receptor” value is given as “Partial agonist”.
In the case of `O=c1c2cnc3ccccc3c2[nH]n1-c1ccccc1` [CGS-8216], the “Effect at GABA receptor” value is given as “Agonist”.
In the case of `O=c1c2cnc3ccccc3c2[nH]n1-c1ccc(Cl)cc1` [CGS-9896], the “Effect at GABA receptor” value is listed as “Agonist”.
For `O=c1nc2ccccc2c2nc(-c3ccccc3)[nH]n12` [CGS-13767], the “Effect at GABA receptor” value is given as “Agonist”.
In the case of `COc1ccc(-n2[nH]c3c4c(ncc3c2=O)CCCCC4)cc1` [CGS-20625], the “Effect at GABA receptor” value is given as “Agonist”.
In the case of `CCc1c(OC)nc2nc(C(=O)c3ccccc3)cn2c1C` [Divaplon], the “Effect at GABA receptor” value is given as “Partial agonist”.
In the case of `CCc1c(OC)nc2nc(-c3noc(C)n3)cn2c1C` [Fasiplon], the “Effect at GABA receptor” value is given as “Agonist”.
For `COc1c(-c2ccc(N)cc2)nc2ccc(NCc3cccc(C)c3)nn12` [GBLD-345], the “Effect at GABA receptor” value is given as “Full agonist”.
In the case of `COCc1c(C(=O)OC(C)C)ncc2[nH]c3cccc(Cc4ccc(Cl)cc4)c3c12` [Gedocarnil], the “Effect at GABA receptor” value is given as “Agonist”.
In the case of `CC(=O)N(C)c1cc(-c2ccnc3c(C(=O)c4cccs4)cnn23)ccc1F` [Lorediplon], the “Effect at GABA receptor” value is given as “Agonist”.
For `CCc1ccc(-c2nc3ccc(C)cn3c2CN(C)C(=O)CC(C)C)cc1` [Necopidem], the “Effect at GABA receptor” value is listed as “Agonist”.
In the case of `O=C(c1ccccn1)c1cnn2c(-c3ccncc3)ccnc12` [Ocinaplon], the “Effect at GABA receptor” value is given as “Agonist”.
For `CC(C)n1c(=O)c2c(-c3noc(C4CC4)n3)ncn2c2ccccc21` [Panadiplon], the “Effect at GABA receptor” value is given as “Partial agonist”.
In the case of `c1ccc(-c2cc(CCC3CCNCC3)c3ccccc3n2)cc1` [Pipequaline], the “Effect at GABA receptor” value is listed as “Partial agonist”.
For `Cc1ccc(S(=O)(=O)N2CCc3ccccc3[C@@H]2[C@@H]2CCC(=O)O2)cc1` [ROD-188], the “Effect at GABA receptor” value is given as “Agonist”.
For `CCOCN1C2=C(C(=O)Nc3ccccc3F)C(=O)CCN2c2ccc(F)cc21` [RWJ-51204], the “Effect at GABA receptor” value is given as “Partial agonist”.
